Source: ChEMBL document CHEMBL4507327 (2021)

Columns and labels:
[1] = molecular target: Acetylcholine receptor subunit alpha (Homo sapiens) (UniProt P02708); test: Inhibition of Nicotinic Acetylcholine D1, Bungarotoxin at 10 µM in the Eurofins-Panlabs radioligand binding assay (Eurofins_assay_258700); conditions: Compound concentration 10.0 uM
[2] = molecular target: Serine/threonine-protein kinase N2 (Homo sapiens, UniProt Q16513); test: PKN2 [PRK2(PKN2LGG5)] Takeda global kinase panel
[3] = molecular target: Serine/threonine-protein kinase SIK1 (Homo sapiens, UniProt P57059); test: SIK(SIK1LHY1) Takeda global kinase panel
Serine/threonine-protein kinase SIK1, sequence (P57059 whole entry): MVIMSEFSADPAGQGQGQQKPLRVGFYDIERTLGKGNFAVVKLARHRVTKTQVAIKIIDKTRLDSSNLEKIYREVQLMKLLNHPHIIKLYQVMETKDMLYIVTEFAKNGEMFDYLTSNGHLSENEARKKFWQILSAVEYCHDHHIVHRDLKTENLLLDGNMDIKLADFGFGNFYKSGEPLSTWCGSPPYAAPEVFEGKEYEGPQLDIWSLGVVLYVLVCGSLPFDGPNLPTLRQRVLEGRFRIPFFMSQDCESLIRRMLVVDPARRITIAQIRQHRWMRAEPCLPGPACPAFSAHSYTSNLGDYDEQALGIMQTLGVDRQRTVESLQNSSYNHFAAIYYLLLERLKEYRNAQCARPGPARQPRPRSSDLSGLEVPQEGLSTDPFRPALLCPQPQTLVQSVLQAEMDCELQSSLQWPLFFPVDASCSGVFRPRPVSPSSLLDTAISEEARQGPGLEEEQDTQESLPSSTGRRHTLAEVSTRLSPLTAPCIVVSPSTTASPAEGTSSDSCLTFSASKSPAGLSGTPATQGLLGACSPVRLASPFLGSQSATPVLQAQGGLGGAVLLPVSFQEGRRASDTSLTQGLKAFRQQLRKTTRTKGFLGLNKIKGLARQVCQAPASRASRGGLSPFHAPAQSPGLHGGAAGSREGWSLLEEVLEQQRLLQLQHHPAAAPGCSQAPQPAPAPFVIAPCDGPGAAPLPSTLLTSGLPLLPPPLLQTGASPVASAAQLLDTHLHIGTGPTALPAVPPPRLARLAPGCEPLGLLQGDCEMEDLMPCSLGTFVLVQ

[4] = molecular target: 5-hydroxytryptamine receptor 2B (Homo sapiens) (UniProt P41595); conditions: Compound concentration 10.0 uM
[5] = molecular target: 5-hydroxytryptamine receptor 2C (Homo sapiens) (UniProt P28335); conditions: Compound concentration 10.0 uM
[6] = molecular target: D(1B) dopamine receptor (Homo sapiens) (UniProt P21918); conditions: Compound concentration 10.0 uM
[7] = molecular target: Delta-type opioid receptor (Homo sapiens) (UniProt P41143); conditions: Compound concentration 10.0 uM
[8] = molecular target: T1, Alpha-1A adrenergic receptor (Homo sapiens) (UniProt P35348); conditions: Compound concentration 10.0 uM
T1 sequence (whole entry): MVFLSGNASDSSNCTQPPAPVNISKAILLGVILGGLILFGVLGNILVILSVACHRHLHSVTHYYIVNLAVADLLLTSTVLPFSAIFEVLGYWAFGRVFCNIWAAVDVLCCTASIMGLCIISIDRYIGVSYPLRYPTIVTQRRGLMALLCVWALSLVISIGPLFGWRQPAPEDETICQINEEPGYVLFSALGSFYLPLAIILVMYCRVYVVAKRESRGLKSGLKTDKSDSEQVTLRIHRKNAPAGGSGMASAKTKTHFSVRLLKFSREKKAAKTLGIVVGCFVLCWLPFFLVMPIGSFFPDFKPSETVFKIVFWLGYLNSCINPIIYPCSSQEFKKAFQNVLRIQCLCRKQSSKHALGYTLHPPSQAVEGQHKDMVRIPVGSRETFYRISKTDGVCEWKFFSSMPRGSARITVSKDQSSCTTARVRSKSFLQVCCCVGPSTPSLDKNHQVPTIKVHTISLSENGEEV

[9] = molecular target: Alpha-2A adrenergic receptor (Homo sapiens) (UniProt P08913); conditions: Compound concentration 10.0 uM
[10] = molecular target: T2, Muscarinic acetylcholine receptor M2 (Homo sapiens) (UniProt P08172); conditions: Compound concentration 10.0 uM
T2 sequence (whole entry): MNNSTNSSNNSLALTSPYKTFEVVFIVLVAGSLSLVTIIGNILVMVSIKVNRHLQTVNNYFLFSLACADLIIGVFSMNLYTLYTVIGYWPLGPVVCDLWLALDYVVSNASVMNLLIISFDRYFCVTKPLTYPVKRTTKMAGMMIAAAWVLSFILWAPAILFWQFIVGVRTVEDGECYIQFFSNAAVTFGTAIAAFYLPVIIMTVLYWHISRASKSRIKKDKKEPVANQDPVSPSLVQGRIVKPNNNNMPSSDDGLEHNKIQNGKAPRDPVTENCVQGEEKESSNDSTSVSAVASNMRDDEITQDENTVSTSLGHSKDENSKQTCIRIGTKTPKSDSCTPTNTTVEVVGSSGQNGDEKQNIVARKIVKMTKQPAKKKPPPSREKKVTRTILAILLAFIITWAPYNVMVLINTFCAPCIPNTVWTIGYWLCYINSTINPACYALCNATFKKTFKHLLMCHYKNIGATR

[11] = molecular target: Muscarinic acetylcholine receptor M3 (Homo sapiens) (UniProt P20309); conditions: Compound concentration 10.0 uM
[12] = molecular target: Alpha-1D adrenergic receptor (Homo sapiens) (UniProt P25100); conditions: Compound concentration 10.0 uM
Alpha-1D adrenergic receptor (Homo sapiens), sequence (P25100 whole entry): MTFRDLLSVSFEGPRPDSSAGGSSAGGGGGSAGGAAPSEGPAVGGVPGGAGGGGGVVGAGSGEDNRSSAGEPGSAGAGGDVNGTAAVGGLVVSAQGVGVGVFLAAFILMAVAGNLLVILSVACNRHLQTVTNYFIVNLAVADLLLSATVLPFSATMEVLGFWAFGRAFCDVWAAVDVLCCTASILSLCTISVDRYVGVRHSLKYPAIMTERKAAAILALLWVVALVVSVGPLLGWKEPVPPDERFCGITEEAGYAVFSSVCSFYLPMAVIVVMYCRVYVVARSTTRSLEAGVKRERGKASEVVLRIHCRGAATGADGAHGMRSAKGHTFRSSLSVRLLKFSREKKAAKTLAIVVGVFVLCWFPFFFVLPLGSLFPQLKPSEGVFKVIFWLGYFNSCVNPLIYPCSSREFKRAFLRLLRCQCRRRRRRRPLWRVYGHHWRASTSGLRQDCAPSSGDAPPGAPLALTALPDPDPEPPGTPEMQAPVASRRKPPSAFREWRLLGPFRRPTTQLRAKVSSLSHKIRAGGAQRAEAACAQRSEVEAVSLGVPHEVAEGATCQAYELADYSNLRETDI

Oryctolagus cuniculus = organism: Oryctolagus cuniculus; conditions: Compound concentration 10.0 uM
[13] = molecular target: Inhibitor of nuclear factor kappa-B kinase subunit alpha (Homo sapiens, UniProt O15111); test: IKKalpha(CHUKLGP1) Takeda global kinase panel
[14] = molecular target: Inhibitor of nuclear factor kappa-B kinase subunit epsilon (Homo sapiens, UniProt Q14164); test: IKKepsilon(IKBELGY1) Takeda global kinase panel
[15] = molecular target: MAP kinase-activated protein kinase 2 (Homo sapiens, UniProt P49137); test: MAPKAPK2(MPK2LGRH) Takeda global kinase panel
[16] = molecular target: 5'-AMP-activated protein kinase catalytic subunit alpha-1 (Homo sapiens, UniProt Q13131); test: AMPKalpha1(PRA1PGF1) Takeda global kinase panel
[17] = molecular target: cAMP-dependent protein kinase catalytic subunit alpha (Homo sapiens, UniProt P17612); test: PKAalpha(PRCALGH1) Takeda global kinase panel
[18] = molecular target: AP2-associated protein kinase 1 (Homo sapiens, UniProt Q2M2I8); test: AAK1(AAK1LGF1) Takeda global kinase panel
AP2-associated protein kinase 1, sequence (Q2M2I8 whole entry): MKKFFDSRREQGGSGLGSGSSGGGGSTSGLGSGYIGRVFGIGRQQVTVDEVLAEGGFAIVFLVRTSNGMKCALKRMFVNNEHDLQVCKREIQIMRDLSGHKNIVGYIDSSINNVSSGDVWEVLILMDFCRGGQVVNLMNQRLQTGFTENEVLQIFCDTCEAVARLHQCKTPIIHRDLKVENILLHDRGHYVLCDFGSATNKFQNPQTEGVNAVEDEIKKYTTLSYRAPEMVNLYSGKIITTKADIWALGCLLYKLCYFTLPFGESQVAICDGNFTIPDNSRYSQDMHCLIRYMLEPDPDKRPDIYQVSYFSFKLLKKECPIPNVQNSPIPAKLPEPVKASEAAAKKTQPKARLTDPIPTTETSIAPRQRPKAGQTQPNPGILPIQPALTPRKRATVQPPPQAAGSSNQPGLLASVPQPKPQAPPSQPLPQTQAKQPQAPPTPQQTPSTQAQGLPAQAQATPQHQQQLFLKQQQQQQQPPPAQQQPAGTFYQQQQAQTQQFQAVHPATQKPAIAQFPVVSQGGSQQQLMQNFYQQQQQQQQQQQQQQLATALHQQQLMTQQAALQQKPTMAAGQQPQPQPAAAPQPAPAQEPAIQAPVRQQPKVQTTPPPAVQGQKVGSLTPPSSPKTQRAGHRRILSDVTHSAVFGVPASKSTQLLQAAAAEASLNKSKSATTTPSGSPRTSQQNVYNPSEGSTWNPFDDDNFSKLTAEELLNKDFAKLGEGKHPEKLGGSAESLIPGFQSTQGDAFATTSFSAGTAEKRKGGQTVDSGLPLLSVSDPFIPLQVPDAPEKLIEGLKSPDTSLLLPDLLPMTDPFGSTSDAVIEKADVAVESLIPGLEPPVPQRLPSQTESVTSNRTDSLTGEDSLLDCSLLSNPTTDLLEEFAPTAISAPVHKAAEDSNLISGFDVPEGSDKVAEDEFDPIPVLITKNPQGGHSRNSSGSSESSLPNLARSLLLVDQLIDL

[19] = molecular target: Calcium/calmodulin-dependent protein kinase type II subunit gamma (Homo sapiens, UniProt Q13555); test: CaMK2gamma(CA2GLGT5) Takeda global kinase panel
[20] = molecular target: Cyclin-dependent kinase-like 1 (Homo sapiens, UniProt Q00532); test: CDKL1(CDL1LGT1) Takeda global kinase panel
Cyclin-dependent kinase-like 1, sequence (Q00532 whole entry): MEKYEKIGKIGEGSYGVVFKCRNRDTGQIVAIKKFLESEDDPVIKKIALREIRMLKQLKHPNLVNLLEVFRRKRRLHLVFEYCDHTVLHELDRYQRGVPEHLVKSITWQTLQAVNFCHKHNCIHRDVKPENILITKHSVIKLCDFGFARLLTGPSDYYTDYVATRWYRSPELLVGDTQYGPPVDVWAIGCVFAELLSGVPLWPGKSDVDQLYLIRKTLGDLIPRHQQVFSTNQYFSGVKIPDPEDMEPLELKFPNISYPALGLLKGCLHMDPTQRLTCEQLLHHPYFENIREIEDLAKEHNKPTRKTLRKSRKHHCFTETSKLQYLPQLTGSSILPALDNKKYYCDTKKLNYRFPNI

Ephrin type-A receptor 2 = Ephrin type-A receptor 2 (Homo sapiens, UniProt P29317); test: EphA2(EPA2LGY1) Takeda global kinase panel
[21] = molecular target: Leucine-rich repeat serine/threonine-protein kinase 2 (Homo sapiens, UniProt Q5S007); test: LRRK2(LRR2PGF1) Takeda global kinase panel
[22] = molecular target: Mitogen-activated protein kinase 7 (Homo sapiens, UniProt Q13164); test: ERK5(MAP7LGF1) Takeda global kinase panel
[23] = molecular target: Hepatocyte growth factor receptor (Homo sapiens, UniProt P08581); test: Met([…]) Takeda global kinase panel
[24] = molecular target: cGMP-dependent protein kinase 1 (Homo sapiens, UniProt Q13976); test: PKG1(PRG1LFP1) Takeda global kinase panel
[25] = molecular target: Receptor-interacting serine/threonine-protein kinase 4 (Homo sapiens, UniProt P57078); test: ANKRD3(RIP4LGN1) Takeda global kinase panel
[26] = molecular target: Serine/threonine-protein kinase 38 (Homo sapiens, UniProt Q15208); test: NDR1(ST38LGF1) Takeda global kinase panel
Serine/threonine-protein kinase 38, sequence (Q15208 whole entry): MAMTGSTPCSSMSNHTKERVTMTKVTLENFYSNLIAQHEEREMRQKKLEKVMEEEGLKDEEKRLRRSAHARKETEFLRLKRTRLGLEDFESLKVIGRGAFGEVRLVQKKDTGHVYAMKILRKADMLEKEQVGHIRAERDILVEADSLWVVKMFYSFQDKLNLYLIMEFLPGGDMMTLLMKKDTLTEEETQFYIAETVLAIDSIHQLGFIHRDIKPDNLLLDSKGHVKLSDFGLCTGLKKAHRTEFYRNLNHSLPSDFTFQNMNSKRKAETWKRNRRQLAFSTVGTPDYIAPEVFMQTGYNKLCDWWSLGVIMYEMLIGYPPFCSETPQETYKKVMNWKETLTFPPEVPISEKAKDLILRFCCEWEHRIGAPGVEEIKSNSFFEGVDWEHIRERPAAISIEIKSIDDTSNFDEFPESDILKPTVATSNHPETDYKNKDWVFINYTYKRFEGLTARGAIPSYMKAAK

[27] = molecular target: Serine/threonine-protein kinase TAO1 (Homo sapiens, UniProt Q7L7X3); test: TAO1(TAO1LGF1) Takeda global kinase panel
[28] = molecular target: Dual specificity testis-specific protein kinase 1 (Homo sapiens, UniProt Q15569); test: TESK1(TES1LGRA) Takeda global kinase panel
Dual specificity testis-specific protein kinase 1, sequence (Q15569 whole entry): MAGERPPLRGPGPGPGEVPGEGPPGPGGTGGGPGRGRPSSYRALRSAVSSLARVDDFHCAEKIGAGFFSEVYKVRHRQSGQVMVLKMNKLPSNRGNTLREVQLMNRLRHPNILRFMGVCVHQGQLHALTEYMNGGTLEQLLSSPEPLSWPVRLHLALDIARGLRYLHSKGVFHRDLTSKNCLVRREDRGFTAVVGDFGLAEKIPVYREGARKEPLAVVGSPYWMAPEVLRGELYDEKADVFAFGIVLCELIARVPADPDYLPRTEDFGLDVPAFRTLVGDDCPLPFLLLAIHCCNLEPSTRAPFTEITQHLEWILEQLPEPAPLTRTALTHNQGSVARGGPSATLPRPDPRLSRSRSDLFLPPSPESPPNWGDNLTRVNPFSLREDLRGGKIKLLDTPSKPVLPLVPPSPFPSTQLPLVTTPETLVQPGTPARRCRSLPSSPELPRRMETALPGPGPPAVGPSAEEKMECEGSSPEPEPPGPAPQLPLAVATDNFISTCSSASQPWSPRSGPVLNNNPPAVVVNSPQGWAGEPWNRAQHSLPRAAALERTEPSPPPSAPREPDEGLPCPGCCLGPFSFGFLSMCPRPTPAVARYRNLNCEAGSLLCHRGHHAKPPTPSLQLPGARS

[29] = molecular target: Testis-specific serine/threonine-protein kinase 3 (Homo sapiens, UniProt Q96PN8); test: TSSK3(TSS3LGRM) Takeda global kinase panel
[30] = molecular target: Bromodomain-containing protein 2 (Homo sapiens, UniProt P25440); test: BRD2(BRD2LHRC) Takeda global kinase panel
Bromodomain-containing protein 2, sequence (P25440 whole entry): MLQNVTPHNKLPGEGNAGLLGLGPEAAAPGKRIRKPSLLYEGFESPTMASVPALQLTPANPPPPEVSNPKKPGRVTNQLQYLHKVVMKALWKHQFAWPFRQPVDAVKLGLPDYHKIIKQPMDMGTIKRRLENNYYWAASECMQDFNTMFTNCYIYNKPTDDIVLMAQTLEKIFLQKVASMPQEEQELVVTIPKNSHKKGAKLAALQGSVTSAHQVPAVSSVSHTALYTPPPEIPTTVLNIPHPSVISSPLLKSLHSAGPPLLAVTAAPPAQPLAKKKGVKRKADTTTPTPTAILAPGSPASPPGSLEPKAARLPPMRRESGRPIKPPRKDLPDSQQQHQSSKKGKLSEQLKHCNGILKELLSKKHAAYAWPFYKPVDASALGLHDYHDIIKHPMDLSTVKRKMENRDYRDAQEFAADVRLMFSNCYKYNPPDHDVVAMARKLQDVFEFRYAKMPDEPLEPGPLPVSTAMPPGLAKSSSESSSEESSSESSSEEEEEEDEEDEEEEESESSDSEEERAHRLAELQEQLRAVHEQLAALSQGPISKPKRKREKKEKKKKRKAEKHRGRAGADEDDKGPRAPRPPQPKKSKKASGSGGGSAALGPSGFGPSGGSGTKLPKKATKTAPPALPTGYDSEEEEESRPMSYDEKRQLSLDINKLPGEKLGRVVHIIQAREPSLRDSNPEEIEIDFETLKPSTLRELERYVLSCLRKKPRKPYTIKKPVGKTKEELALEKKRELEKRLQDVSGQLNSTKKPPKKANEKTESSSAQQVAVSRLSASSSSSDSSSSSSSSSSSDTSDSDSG

[31] = molecular target: Histamine H2 receptor (Homo sapiens) (UniProt P25021); conditions: Compound concentration 10.0 uM
Histamine H2 receptor (Homo sapiens), sequence (P25021 whole entry): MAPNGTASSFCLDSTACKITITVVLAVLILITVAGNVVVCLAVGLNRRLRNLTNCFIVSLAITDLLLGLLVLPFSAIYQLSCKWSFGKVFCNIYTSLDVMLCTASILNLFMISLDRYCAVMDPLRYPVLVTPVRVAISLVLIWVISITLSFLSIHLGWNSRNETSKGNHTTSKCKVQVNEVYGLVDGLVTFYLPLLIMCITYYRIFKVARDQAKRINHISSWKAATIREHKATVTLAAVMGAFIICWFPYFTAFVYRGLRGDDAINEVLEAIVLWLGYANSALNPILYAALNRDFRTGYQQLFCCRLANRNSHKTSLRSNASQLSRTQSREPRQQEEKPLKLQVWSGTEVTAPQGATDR

CN1C(=O)[C@@H](N2CCc3cn(Cc4ccccc4)nc3C2=O)COc2ccccc21 [TP-030-1]
inactive: inhibition [1] -8% | inhibition [4] 12% | inhibition [5] -2.89% | inhibition [6] 1.77% | inhibition [7] 28.8% | inhibition [8] -0.5% | inhibition [9] 19.1% | inhibition [10] -4.37% | inhibition [11] 0.09% | inhibition [12] -0.3% | inhibition (Oryctolagus cuniculus) -6%
1000 nM: IC50 [2] | IC50 [3]

CN1C(=O)[C@@H](N2CCc3cn(CC4CCS(=O)(=O)CC4)nc3C2=O)COc2ccccc21 [TP-030n]
inactive: inhibition [31] -10%
1000 nM: IC50 [13] | IC50 [14] | IC50 [15] | IC50 [16] | IC50 [17] | IC50 [18] | IC50 [19] | IC50 [20] | IC50 (Ephrin type-A receptor 2) | IC50 [21] | IC50 [22] | IC50 [23] | IC50 [24] | IC50 [25] | IC50 [26] | IC50 [27] | IC50 [28] | IC50 [29] | IC50 [30]
